Experimental data from BigSolDB 2.1.

O=C(Nc1ccc(F)cc1F)c1cccnc1Oc1cccc(C(F)(F)F)c1
solubility (mole fraction)
Conditions | 278.15 K | 283.15 K | 288.15 K | 293.15 K | 298.15 K | 303.15 K | 308.15 K | 313.15 K | 318.15 K | 323.15 K
in acetone | 0.00903 | 0.0107 | 0.0127 | 0.0152 | 0.018 | 0.021 | 0.0247 | 0.029 | 0.0339 | 0.0408
in cyclohexane | – | 0.000103 | 0.000162 | 0.000229 | 0.000334 | 0.000458 | 0.000613 | 0.000806 | 0.00112 | 0.00147
in ethanol | 0.000251 | 0.000332 | 0.00043 | 0.000545 | 0.000681 | 0.000857 | 0.00107 | 0.00139 | 0.00173 | 0.00214
in isopropanol | 4.65e-05 | 7.36e-05 | 0.000116 | 0.000183 | 0.000282 | 0.000431 | 0.000665 | 0.001 | 0.00152 | 0.0022
in methanol | 0.000235 | 0.000293 | 0.000377 | 0.000474 | 0.0006 | 0.00075 | 0.000938 | 0.00117 | 0.00147 | 0.00187
in toluene | 0.00513 | 0.00638 | 0.00779 | 0.00954 | 0.0116 | 0.0142 | 0.0177 | 0.0215 | 0.0252 | 0.0303
